In paper PMC5884652, “New antimicrobial peptide kills drug-resistant pathogens without detectable resistance” (Oncotarget, 2018):
Ends that are not written are not given here.

Legend:
[1] = system: TNF-α and IL-1β in RAW 264.7 macrophages; assay: Pro-inflammatory cytokines in macrophages; type: cell-based, mouse
Protocol: To examine cytokine expression elicited by S. aureus CCARM 0027, RAW 264.7 mouse macrophages were cultured in DMEM supplemented with antibiotics ([…] penicillin and 100 μg/mL streptomycin) and 10% fetal calf serum in 12-well plates at 37° C in a humidified chamber with an atmosphere containing 5% CO2. Expression of the pro-inflammatory cytokines TNFα and IL-β was evaluated after the addition of S. aureus CCARM 0027 (1 × 10^6 cfu/mL) for 30 min at […]. After treatment, the RAW 264.7 cells (1 × 10^6 cells/mL) were incubated for an additional 24 h with or without CSP-4 (25, 50, 100, and 200 µg/mL). The cells were then collected and the protein was extracted using PRO-PREP™ protein extraction solution (iNtRON Biotechnology, Gyeonggi-do, Korea).
RAW 264.7 cells (1 × 10^6 cells/mL) were seeded into a 12-well plate and incubated for 24 h as described above. […] The levels of pro-inflammatory cytokines in the supernatants were determined after 12 h using mouse anti-TNF-α and anti-IL-1β antibodies based on absorbance at 450 nm using a microplate reader (VERSA Max microplate reader, Molecular Devices). Cytokine concentrations were also determined using TNF-α and IL-1β enzyme-linked immunosorbent assay kits (Koma Biotech, Seoul, Korea). […]

S. aureus ATCC 29213 = assay: microbe, parasite or virus in culture
Protocol: To determine the MICs of CSP-4, a single colony of S. aureus ATCC 29213 was cultured at 37° C in tryptic soy broth, as well as daptomycin and linezolid, which served as commercial antibiotic positive controls. […] For each agent, the MIC was determined daily for 29 days at pH 5.5 and/or for 8 days at pH 7.4 using cells from wells containing half the MIC (1/2 MIC well). […] All MICs were determined in duplicate.

S. aureus LTA = assay: Peptide-LTA binding affinity assay (dansyl polymyxin B); settings: LTA 9 µg, 2.5 μM dansyl polymyxin B, 5 mM HEPES buffer pH 7.4, peptide 0.4 to 4 μM
Protocol: Lipoteichoic acid (LTA) and lipopolysaccharide (LPS) binding affinity assays were performed using a Perkin-Elmer LS55 fluorometer (Waltham, MA, USA). S. aureus LTA and E. coli LPS (9 µg) were incubated with 2.5 μM dansyl-polymyxin B in 5 mM HEPES buffer for 5–10 min at pH 7.4. The CSP-4 peptide was added in 0.4 μM increments from 0.4 to 4 μM. The increase in fluorescence intensity was assessed using a spectrofluorometer at an excitation wavelength of 340 nm and an emission wavelength of 482 nm (Perkin-Elmer LS55).

S. aureus 1630 = assay: microbe, parasite or virus in culture; type: cell-based, Staphylococcus aureus; settings: pH 7.4 (II); 10 mM sodium phosphate buffer, 10% LB; 37° C, 24 h; mean of 3 experiments
Source text: (§1) The method for peptide synthesis has been described in detail previously. E. coli ATCC 25922 (LB media), P. aeruginosa ATCC 15692 (NB+0.5% NaCl media), Listeria monocytogenes ATCC 3710 (LB media), Staphylococcus epidermidis ATCC 12228 (LB media), and S. aureus ATCC 29213 (TSB media) were obtained from the American Type Culture Collection (Manassas, VA, USA). Bacillus subtilis KCTC 1998 (LB media), Salmonella typhimurium KCTC 1926 (NB media), and Proteus vulgaris KCTC 2433 (NB media) were obtained from the Korean Collection for Type Cultures (Jeollabuk-do, Korea). E. coli CCARM 1238 was received from the Culture Collection of Antibiotic Resistant Microbes at Seoul Women’s University, Korea. Drug-resistant P. aeruginosa 3543, 3904, 3547, and 4007 and S. aureus 3126, 0027, 5157, 1635, 4761, 5159, 3359, 2122, 1630, 1870, 3511, 5156, and 3518 were resistant strains isolated from patients with otitis media in a Chonnam National University’s hospital.
(§2) The antibacterial activities of AMPs (melittin, clavaspirin, and its analogs) and conventional antibiotic drugs (erythromycin, gentamicin, ampicillin, and piperacidin) were determined using microdilution assays. Bacterial cells were cultured at 37° C in appropriate culture media at pH 5.5 or pH 7.4 until collection during the mid-log phase and suspended in 10 mM sodium phosphate buffer (pH 5.5 or pH 7.4) supplemented with 10% culture medium. Thereafter, 2× serial dilutions of each peptide (0.25–128 μM) or antibiotic (0.25–256 μM) were added to sterile 96-well plates, and aliquots of cell suspension (5 × 10^5 colony forming units (cfu)/mL) were seeded into each well. The samples were then incubated at 37° C for 24 h. At the end of the incubation, the minimum inhibitory concentrations (MICs) of the peptides were determined using a VERSA Max microplate reader (Molecular Devices Co., Sunnyvale, CA, USA) at a wavelength of 600 nm. […] MIC values were calculated as the mean of 3 independent experiments conducted in triplicate.

S. aureus 5159 = assay: microbe, parasite or virus in culture; type: cell-based, Staphylococcus aureus; settings: pH 7.4 (II); 10 mM sodium phosphate buffer, 10% LB; 37° C, 24 h; mean of 3 experiments
Source text: as §1, §2

S. aureus 0027 = assay: microbe, parasite or virus in culture; type: cell-based, Staphylococcus aureus; settings: pH 7.4 (II); 10 mM sodium phosphate buffer, 10% LB; 37° C, 24 h; mean of 3 experiments
Source text: as §1, §2

FLRFIGSVKHGKGHLVHHIGVAL-NH2 [CSP-4]
TNF-α and IL-1β levels ([1]; RAW 264.7 cells exposed to S. aureus CCARM 0027 (1 × 10^6 cfu/mL), CSP-4 25, 50, 100, and 200 μg/mL, ELISA): significantly decreased | TNF-α and IL-1β levels ([1]; RAW 264.7 cells treated with 1 μg/mL S. aureus LTA, CSP-4 100 µg/mL, immunocytochemistry): reduced TNF-α and IL-1β levels | MIC after 29 passages (S. aureus ATCC 29213; after exposure for 29 passages): 16 µM | Increase of MIC (S. aureus ATCC 29213; after exposure for 29 passages, pH not given): approximately 2 × | Induction of drug resistance (S. aureus ATCC 29213; exposure for up to 29 passages): did not induce drug resistance | Binding to LTA (fluorescence of dansyl polymyxin B) (S. aureus LTA): dose-dependent increase in fluorescence intensity | MIC (S. aureus 1630): 8 µM | MIC (S. aureus 5159): 8 µM | MIC (S. aureus 0027): 8 µM
